# Structures can show the parent of a compound that is named as a salt.
# Legend:
# ALK enzyme = target: T1, ALK enzyme (Homo sapiens, UniProt Q9UM73); assay: ALK enzymatic activity assay 1; format: biochemical
# T1 construct: purchased Invitrogen PV4185
# Experimental: ALK Enzymatic Activity Assay 1
# Compounds were added at a final concentration of 1% DMSO in half-log dilutions, starting at 20 μM final concentration. The reactions were initiated by the addition of 10 μL of peptide/ATP mix to 10 μL enzyme and 2 μL of compound in 384-well plate. […] On the 12-sipper chip, substrate and phosphorylated product were separated with an upstream voltage of −2650 V, a downstream voltage of −500 V, and a screen pressure of −1.5 psi. The relative peak heights of substrate and product were measured and ratios were calculated using HTS Well Analyzer Software version 5.2.43 from the manufacturer.
# cMet enzyme = target: T2, cMet enzyme (Homo sapiens, UniProt P08581); assay: cMet enzymatic activity assay; format: biochemical; settings: purified cMet enzyme 7.5 nM, ATP 17 μM (Km)
# T2 construct: RTC Lot#032006
# T2 sequence (P08581 25-1390): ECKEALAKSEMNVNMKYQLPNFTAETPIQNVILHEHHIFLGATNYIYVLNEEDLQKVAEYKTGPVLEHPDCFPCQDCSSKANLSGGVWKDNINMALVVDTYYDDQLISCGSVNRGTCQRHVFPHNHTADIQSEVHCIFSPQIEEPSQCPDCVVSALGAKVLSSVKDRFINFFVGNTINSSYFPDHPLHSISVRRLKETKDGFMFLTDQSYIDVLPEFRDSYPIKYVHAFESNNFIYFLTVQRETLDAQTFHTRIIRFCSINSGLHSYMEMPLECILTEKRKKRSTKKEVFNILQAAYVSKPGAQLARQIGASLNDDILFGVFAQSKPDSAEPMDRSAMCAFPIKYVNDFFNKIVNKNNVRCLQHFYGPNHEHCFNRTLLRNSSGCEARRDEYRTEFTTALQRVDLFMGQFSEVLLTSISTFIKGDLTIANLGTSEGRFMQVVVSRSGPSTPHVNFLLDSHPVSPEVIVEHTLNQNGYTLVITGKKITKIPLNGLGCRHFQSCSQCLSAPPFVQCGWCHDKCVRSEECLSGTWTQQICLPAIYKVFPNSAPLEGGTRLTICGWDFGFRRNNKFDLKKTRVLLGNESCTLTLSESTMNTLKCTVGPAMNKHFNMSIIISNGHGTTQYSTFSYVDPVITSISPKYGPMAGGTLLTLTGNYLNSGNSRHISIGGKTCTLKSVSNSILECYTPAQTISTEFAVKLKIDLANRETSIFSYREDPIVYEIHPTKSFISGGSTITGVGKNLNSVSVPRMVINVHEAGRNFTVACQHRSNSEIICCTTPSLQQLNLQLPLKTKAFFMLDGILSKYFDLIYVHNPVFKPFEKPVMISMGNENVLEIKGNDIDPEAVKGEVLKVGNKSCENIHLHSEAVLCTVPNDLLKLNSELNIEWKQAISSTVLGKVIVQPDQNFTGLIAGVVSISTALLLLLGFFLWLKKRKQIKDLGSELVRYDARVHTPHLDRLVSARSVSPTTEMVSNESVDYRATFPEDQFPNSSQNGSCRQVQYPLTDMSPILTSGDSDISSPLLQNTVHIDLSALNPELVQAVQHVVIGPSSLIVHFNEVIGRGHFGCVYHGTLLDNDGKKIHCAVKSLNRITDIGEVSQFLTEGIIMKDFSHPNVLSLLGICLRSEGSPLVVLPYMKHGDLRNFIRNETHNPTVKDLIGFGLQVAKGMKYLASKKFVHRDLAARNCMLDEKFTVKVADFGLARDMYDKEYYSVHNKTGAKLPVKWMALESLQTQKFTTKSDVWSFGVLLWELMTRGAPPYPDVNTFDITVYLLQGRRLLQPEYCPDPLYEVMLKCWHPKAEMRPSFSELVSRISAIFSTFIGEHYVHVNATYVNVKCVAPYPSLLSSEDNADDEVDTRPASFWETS
# Experimental: cMet Enzymatic Activity Assay
# Compounds were added at a final concentration of 2% DMSO in half-log dilutions, starting at 20 μM final concentration. The reactions were initiated by addition of 10 μL of peptide/ATP mix to 10 μL enzyme and 5 μL of compound in 384-well plate. […] Substrate and phosphorylated product were separated with an upstream voltage of −2650 V, a downstream voltage of −500V, and a screen pressure of −1.5 psi. The relative peak heights of substrate and product were measured and ratios were calculated using HTS Well Analyzer Software version 5.2.43 from the manufacturer.
# [1] = target: T3, human recombinant wild-type ALK kinase domain (amino acids 1093-1411) (Homo sapiens, UniProt Q9UM73); assay: ALK enzyme assay 2 (microfluidic mobility shift assay); format: biochemical;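 also: kinase reaction run 1 h at room temperature, conversion quantified by electrophoretic separation of fluorescent peptide substrate from phosphorylated product, about 15-20% turnover without inhibitor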
# T3 construct: ALK kinase domain (amino acids 1093-1411); made in house
# T3 sequence (Q9UM73 1093-1411): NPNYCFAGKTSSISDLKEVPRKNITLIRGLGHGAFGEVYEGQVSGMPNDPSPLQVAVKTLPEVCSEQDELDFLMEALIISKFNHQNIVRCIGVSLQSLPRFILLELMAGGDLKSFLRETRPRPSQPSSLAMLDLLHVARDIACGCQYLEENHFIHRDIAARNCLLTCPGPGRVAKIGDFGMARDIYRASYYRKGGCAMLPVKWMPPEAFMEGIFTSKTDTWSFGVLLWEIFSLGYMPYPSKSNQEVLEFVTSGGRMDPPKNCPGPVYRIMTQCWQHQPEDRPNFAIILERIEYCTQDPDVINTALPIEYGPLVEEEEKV
# Experimental: The reactions were incubated for 1 h at room temperature, stopped by the addition of 0.1 M EDTA, pH 8, and the extent of reactions (˜15-20% conversion with no inhibitor) was determined after electrophoretic separation of the fluorescently labeled peptide substrate and phosphorylated product on an LabChip EZ Reader II (Caliper Life Sciences, Hopkinton, Mass.).
# [2] = target: EML4-ALK wt v1 in NIH-3T3 cells (Homo sapiens, UniProt Q9UM73)
# Sequence of EML4-ALK wt v1 in NIH-3T3 cells (Q9UM73 with tags, fused parts or gaps): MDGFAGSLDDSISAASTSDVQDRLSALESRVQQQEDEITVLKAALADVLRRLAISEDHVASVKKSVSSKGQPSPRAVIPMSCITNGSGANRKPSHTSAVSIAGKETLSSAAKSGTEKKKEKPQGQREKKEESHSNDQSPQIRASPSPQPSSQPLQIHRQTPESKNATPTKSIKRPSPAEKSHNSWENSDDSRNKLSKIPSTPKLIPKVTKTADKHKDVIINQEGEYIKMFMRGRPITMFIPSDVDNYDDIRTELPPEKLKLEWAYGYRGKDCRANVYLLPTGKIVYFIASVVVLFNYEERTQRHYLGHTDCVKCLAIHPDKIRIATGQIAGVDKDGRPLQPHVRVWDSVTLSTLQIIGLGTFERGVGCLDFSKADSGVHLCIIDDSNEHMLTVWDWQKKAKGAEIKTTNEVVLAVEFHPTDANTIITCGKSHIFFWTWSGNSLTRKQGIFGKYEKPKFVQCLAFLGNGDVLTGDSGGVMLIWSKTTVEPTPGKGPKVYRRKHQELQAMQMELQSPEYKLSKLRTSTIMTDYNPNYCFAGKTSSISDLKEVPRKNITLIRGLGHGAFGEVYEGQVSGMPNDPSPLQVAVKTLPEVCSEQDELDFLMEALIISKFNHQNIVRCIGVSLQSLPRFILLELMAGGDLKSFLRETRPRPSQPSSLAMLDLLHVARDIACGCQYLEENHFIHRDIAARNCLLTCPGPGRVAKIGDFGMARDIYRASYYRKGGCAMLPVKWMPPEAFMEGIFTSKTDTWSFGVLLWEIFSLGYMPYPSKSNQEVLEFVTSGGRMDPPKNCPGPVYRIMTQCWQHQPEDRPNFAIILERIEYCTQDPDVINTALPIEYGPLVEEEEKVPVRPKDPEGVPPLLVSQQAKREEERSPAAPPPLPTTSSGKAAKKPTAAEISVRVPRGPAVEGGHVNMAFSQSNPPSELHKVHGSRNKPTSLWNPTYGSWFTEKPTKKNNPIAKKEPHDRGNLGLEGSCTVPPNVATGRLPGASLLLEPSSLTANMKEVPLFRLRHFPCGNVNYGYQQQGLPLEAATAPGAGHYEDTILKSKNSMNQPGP
# T1 sequence (Q9UM73 19-1620): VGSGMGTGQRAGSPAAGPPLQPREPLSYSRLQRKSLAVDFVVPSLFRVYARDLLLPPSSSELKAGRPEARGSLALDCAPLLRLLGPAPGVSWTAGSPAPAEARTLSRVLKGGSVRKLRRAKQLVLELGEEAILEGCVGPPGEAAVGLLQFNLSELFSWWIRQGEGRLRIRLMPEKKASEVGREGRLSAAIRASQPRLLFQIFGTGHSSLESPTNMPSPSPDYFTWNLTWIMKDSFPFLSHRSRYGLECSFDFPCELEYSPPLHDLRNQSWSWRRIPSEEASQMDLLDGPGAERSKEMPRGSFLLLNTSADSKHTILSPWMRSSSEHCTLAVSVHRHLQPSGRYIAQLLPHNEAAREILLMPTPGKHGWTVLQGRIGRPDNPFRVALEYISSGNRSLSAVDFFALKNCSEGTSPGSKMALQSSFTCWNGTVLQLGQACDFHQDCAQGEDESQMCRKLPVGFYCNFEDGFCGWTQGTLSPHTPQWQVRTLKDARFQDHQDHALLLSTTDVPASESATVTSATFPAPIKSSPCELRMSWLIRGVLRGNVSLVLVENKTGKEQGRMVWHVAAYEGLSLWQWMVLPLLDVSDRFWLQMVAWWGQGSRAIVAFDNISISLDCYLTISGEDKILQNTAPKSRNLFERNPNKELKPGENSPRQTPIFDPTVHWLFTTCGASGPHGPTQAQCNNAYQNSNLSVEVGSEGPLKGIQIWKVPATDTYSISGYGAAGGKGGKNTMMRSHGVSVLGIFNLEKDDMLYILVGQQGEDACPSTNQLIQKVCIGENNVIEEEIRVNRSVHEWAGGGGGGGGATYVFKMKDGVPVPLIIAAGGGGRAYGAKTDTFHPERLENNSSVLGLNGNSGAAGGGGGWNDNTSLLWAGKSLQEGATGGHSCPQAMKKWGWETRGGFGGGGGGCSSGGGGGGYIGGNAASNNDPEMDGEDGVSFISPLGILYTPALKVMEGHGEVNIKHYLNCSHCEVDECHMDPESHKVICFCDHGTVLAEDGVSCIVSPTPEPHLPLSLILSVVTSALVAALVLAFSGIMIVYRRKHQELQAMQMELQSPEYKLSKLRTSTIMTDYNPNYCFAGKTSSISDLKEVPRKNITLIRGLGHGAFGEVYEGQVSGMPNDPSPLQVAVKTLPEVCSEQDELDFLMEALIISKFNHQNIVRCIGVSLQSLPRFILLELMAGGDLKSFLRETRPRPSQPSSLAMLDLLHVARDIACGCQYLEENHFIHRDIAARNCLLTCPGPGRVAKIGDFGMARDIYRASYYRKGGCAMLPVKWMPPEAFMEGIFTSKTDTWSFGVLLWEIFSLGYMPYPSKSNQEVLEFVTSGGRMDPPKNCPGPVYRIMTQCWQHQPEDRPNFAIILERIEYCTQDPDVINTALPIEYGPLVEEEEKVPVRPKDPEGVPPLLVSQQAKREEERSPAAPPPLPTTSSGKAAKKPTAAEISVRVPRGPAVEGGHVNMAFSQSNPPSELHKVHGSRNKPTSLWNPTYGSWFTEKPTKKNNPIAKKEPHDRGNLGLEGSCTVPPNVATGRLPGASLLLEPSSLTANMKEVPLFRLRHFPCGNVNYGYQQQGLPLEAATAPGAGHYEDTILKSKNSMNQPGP
SMILES,IC50 (ALK enzyme),IC50 (cMet enzyme),Ki [1],IC50 [2]
"COc1ccc(F)cc1[C@@H](C)Oc1cc(-c2c(C)ncn2C)cnc1N [Example 25, 5-(1,4-dimethyl-1H-imidazol-5-yl)-3-[(1R)-1-(5-fluoro-2-methoxyphenyl)-ethoxy]pyridin-2-amine]",38.2 nM,13200 nM,–,–
"CC(Oc1cc(-c2ccnn2C)cnc1N)c1cc(F)cc2scnc12 (centres unmarked) [Example 42, 3-[1-(6-fluoro-1,3-benzothiazol-4-yl)ethoxy]-5-(1-methyl-1H-pyrazol-5-yl)pyridin-2-amine]",58.1 nM,> 15900 nM,2.05 nM,263 nM
"CC(Oc1cc(-c2ccnn2C)cnc1N)c1cc(F)ccc1-n1ccnn1 (centres unmarked) [Example 32, 3-{1-[5-fluoro-2-(1H-1,2,3-triazol-1-yl)phenyl]-ethoxy}-5-(1-methyl-1H-pyrazol-5-yl)pyridin-2-amine]",105 nM,> 20000 nM,36 nM,883 nM
"COc1ncc(F)cc1C(C)Oc1cc(-c2ccnn2C)cnc1N (centres unmarked) [Example 33, 3-[1-(5-fluoro-2-methoxypyridin-3-yl)ethoxy]-5-(1-methyl-1H-pyrazol-5-yl)pyridin-2-amine monohydrochloride]",89.2 nM,> 20000 nM,4.8 nM,380 nM
"CC(Oc1nc(-c2cn(C)cn2)cnc1N)c1cc(F)ccc1Cl (centres unmarked) [Example 59, 3-[1-(2-chloro-5-fluorophenyl)ethoxy]-5-(1-methyl-1H-imidazol-4-yl)pyrazin-2-amine]",126 nM,> 20000 nM,13 nM,631 nM
"COc1ccc(F)cc1C(C)Oc1cc(-c2ncsc2CO)cnc1N (centres unmarked) [Example 13, (4-{6-amino-5-[1-(5-fluoro-2-methoxyphenyl)ethoxy]-pyridin-3-yl}-1,3-thiazol-5-yl)methanol]",132 nM,> 20000 nM,5.5 nM,591 nM
"COc1ccncc1-c1cnc(N)c(OC(C)c2cc(F)ccc2OC)c1 (centres unmarked) [Example 50, 5-[1-(5-fluoro-2-methoxyphenyl)-ethoxy]-4′-methoxy-3,3′-bipyridin-6-amine]",50.2 nM,5070 nM,0.739 nM,58.4 nM
"Cc1n[nH]cc1-c1cnc(N)c(OC(C)c2cc(F)ccc2-n2nccn2)c1 (centres unmarked) [Example 39, 3-{1-[5-fluoro-2-(2H-1,2,3-triazol-2-yl)phenyl]-ethoxy}-5-(3-methyl-1H-pyrazol-4-yl)pyridin-2-amine]",–,4500 nM,–,–
"Cc1n[nH]cc1-c1cnc(N)c(OC(C)c2cc(F)ccc2C#N)c1 (centres unmarked) [Example 38, 2-(1-{[2-amino-5-(3-methyl-1H-pyrazol-4-yl)pyridin-3-yl]oxy}ethyl)-4-fluorobenzonitrile]",–,4050 nM,–,–
"COc1ccc(F)cc1C(C)Oc1cc(-c2scnc2CO)cnc1N (centres unmarked) [Example 14, (5-{6-amino-5-[1-(5-fluoro-2-methoxyphenyl)ethoxy]-pyridin-3-yl}-1,3-thiazol-4-yl)methanol]",74.8 nM,8290 nM,–,–
"COc1ccc(F)cc1[C@@H](C)Oc1cc(-c2cncn2C)cnc1N [Example 22, 3-[(1R)-1-(5-fluoro-2-methoxyphenyl)-ethoxy]-5-(1-methyl-1H-imidazol-5-yl)pyridin-2-amine]",38 nM,3680 nM,–,47.5 nM
"COc1ccc(F)cc1C(C)Oc1cc(-c2cccnc2O)cnc1N (centres unmarked) [Example 8, 6′-amino-5′-[1-(5-fluoro-2-methoxyphenyl)ethoxy]-3,3′-bipyridin-2-ol]",98.2 nM,17400 nM,–,–
C[C@@H](Oc1cc(-c2c(F)cnn2C)cnc1N)c1cc(F)ccc1-n1nccn1 [Example 29],30 nM,7480 nM,–,151 nM
"COc1ccc(F)cc1C(C)Oc1cc(-c2c(C)n[nH]c2C)cnc1N (centres unmarked) [Example 6, 5-(3,5-dimethyl-1H-pyrazol-4-yl)-3-[1-(5-fluoro-2-methoxyphenyl)ethoxy]-pyridin-2-amine]",33.6 nM,6740 nM,0.62 nM,–
"CC(Oc1cc(-c2ccnn2C)cnc1N)c1cc(F)ccc1-n1nccn1 (centres unmarked) [Example 31, 3-{1-[5-fluoro-2-(2H-1,2,3-triazol-2-yl)phenyl]-ethoxy)-5-(1-methyl-1H-pyrazol-5-yl)pyridin-2-amine]",–,13000 nM,–,–
"COc1ccc(F)cc1C(C)Oc1cc(-c2cnc(N)nc2C)cnc1N (centres unmarked) [Example 5, 5-{6-amino-5-[1-(5-fluoro-2-methoxyphenyl)ethoxy]-pyridin-3-yl}-4-methylpyrimidin-2-amine]",48 nM,13000 nM,–,–

SMILES,IC50 (ALK enzyme),IC50 (cMet enzyme),Ki [1],IC50 [2]
"COc1ncccc1-c1cnc(N)c(OC(C)c2cc(F)ccc2-n2nccn2)c1 (centres unmarked) [Example 46, 5-{1-[5-fluoro-2-(2H-1,2,3-triazol-2-yl)phenyl]-ethoxy}-2′-methoxy-3,3′-bipyridin-6-amine]",–,6850 nM,–,–
"COc1ccc(F)cc1C(C)Oc1cc(-c2c(C)nnn2C)cnc1N (centres unmarked) [Example 10, 5-(1,4-dimethyl-1H-1,2,3-triazol-5-yl)-3-[1-(5-fluoro-2-methoxyphenyl)ethoxy]-pyridin-2-amine]",86 nM,> 20000 nM,–,361 nM
"Cc1n[nH]cc1-c1cnc(N)c(O[C@H](C)c2cc(F)ccc2C#N)c1 [Example 40, 2-[(1R)-1-{[2-amino-5-(3-methyl-1H-pyrazol-4-yl)pyridin-3-yl]oxy}ethyl]-4-fluorobenzonitrile]",–,1350 nM,–,–
"Cc1n[nH]c(C)c1-c1cnc(N)c(OC(C)c2cc(F)ccc2-n2nccn2)c1 (centres unmarked) [Example 49, 5-(3,5-dimethyl-1H-pyrazol-4-yl)-3-{1-[5-fluoro-2-(2H-1,2,3-triazol-2-yl)phenyl]-ethoxy}pyridin-2-amine]",114 nM,13100 nM,–,–
"COc1ccc(F)cc1C(C)Oc1cc(-c2ccnn2C)cnc1N (centres unmarked) [Example 43, 3-[1-(5-fluoro-2-methoxyphenyl)-ethoxy]-5-(1-methyl-1H-pyrazol-5-yl)pyridin-2-amine monohydrochloride]",34.9 nM,5090 nM,< 0.249 nM,–
C[C@@H](Oc1cc(-c2scnc2CO)cnc1N)c1cc(F)ccc1-n1nccn1 [Example 28],63.5 nM,13000 nM,–,–
"C[C@@H](Oc1cc(-c2cnnn2C)cnc1N)c1cc(F)ccc1-n1nccn1 [Example 21, 3-{(1R)-1-[5-fluoro-2-(2H-1,2,3-triazol-2-yl)phenyl]-ethoxy)-5-(1-methyl-1H-1,2,3-triazol-5-yl)pyridin-2-amine]",–,14400 nM,–,–
"C[C@@H](Oc1cc(-c2ccnn2C)cnc1N)c1cc(F)ccc1-n1nccn1 [Example 30, 3-{(1R)-1-[5-fluoro-2-(2H-1,2,3-triazol-2-yl)phenyl]ethoxy}-5-(1-methyl-1H-pyrazol-5-yl)pyridin-2-amine]",–,6110 nM,–,–
"C[C@@H](Oc1cc(-c2cnc3c(c2)C(C)(C)C(=O)N3)cnc1N)c1cc(F)ccc1-n1nccn1 [Example 75, 5-(6-amino-5-{(1R)-1-[5-fluoro-2-(2H-1,2,3-triazol-2-yl)phenyl]ethoxy}pyridin-3-yl)-3,3-dimethyl-1,3-dihydro-2H-pyrrolo[2,3-b]pyridin-2-one]",–,–,0.341 nM,24.6 nM
"Cc1c(-c2cnc(N)c(O[C@H](C)c3cc(F)ccc3-n3nccn3)c2)cnn1C1CCNCC1 [Example 125, 3-{(1R)-1-[5-fluoro-2-(2H-1,2,3-triazol-2-yl)phenyl]ethoxy}-5-[5-methyl-1-(piperidin-4-yl)-1H-pyrazol-4-yl]pyridin-2-amine]",–,–,< 0.2 nM,3.7 nM
"COc1nc(CO)ccc1-c1cnc(N)c(O[C@H](C)c2cc(F)ccc2-n2nccn2)c1 [Example 93, (6′-amino-5′-{(1R)-1-[5-fluoro-2-(2H-1,2,3-triazol-2-yl)phenyl]ethoxy}-2-methoxy-3,3′-bipyridin-6-yl)methanol]",–,–,0.43 nM,12.7 nM
"Cc1[nH]ncc1-c1cnc(N)c(OC(C)c2cc(F)ccc2F)c1 (centres unmarked) [Example 35, 3-[1-(2,5-difluorophenyl)ethoxy]-5-(5-methyl-1H-pyrazo-4-yl)pyridin-2-amine]",–,5610 nM,–,–
"COc1ccc(F)cc1C(C)Oc1nc(-c2cc(S(C)(=O)=O)cnc2OC)cnc1N (centres unmarked) [Example 102, 3-[1-(5-fluoro-2-methoxyphenyl)ethoxy]-5-[2-methoxy-5-(methylsulfonyl)pyridin-3-yl]pyrazin-2-amine]",–,–,1.21 nM,89.3 nM
"Cc1n[nH]c(C)c1-c1cnc(N)c(O[C@H](C)c2cc(F)ccc2-n2nccn2)c1 [Example 126, 5-(3,5-Dimethyl-1H-pyrazol-4-yl)-3-{(1R)-1-[5-fluoro-2-(2H-1,2,3-triazol-2-yl)phenyl]ethoxy}pyridin-2-amine]",–,–,< 0.193 nM,12.1 nM
"COc1ccc(-c2cnc(N)c(O[C@H](C)c3cc(F)ccc3-n3nccn3)c2)cc1S(N)(=O)=O [Example 144, 5-(6-amino-5-{(1R)-1-[5-fluoro-2-(2H-1,2,3-triazol-2-yl)phenyl]ethoxy}pyridin-3-yl)-2-methoxybenzenesulfonamide]",–,–,< 0.2 nM,2.45 nM

# Source: patent US8916593B2, “Alkoxy-substituted 2-aminopyridines as ALK inhibitors” (Pfizer Inc., priority 2010, dated 2014)
